From the supplement of paper PMC11061612

How the values were obtained:
Assay in all cases: Bliss excess, mean over the matrix (fraction); higher = more synergy
ES-2 (Ovarian Carcinoma) = test system: ES-2 (Ovarian Carcinoma)
In short: (§1)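 Cell lines in DMEM/F12 or RPMI with 10% FBS were plated in 1536-well plates, held 24 hours at 37°C, 5% CO2, then given two-drug dose matrices for 72 hours (DMSO typically 0.2%). Viability was read by CellTiter-Glo 2.0 luminescence and scaled as inhibition from 0 (vehicle wells) to 1 (blank wells). Combination Emax is the second-highest inhibition in the matrix; Bliss excess is observed combination effect minus expected EA + EB − EA·EB, EA and EB being single-agent effects.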

[1] = test system: FLO-1 (Esophageal Adenocarcinoma)
In short: as §1

[2] = test system: COLO-684 (Endometrial Carcinoma)
In short: as §1

[3] = test system: Calu-6 (Non-Small Cell Lung Carcinoma)
In short: as §1

[4] = test system: HTC-C3 (Thyroid Gland Carcinoma)
In short: as §1

[5] = test system: NCI-H810 (Non-Small Cell Lung Carcinoma)
In short: as §1

[6] = test system: BALL-1 (B-Lymphoblastic Leukemia)
In short: as §1

[7] = test system: Becker (Low Grade Glioma)
In short: as §1

[8] = test system: RL95-2 (Endometrial Carcinoma)
In short: as §1

[9] = test system: RERF-LC-KJ (Lung Adenocarcinoma)
In short: as §1

CHL-1 (Melanoma) = test system: CHL-1 (Melanoma)
In short: as §1

[10] = test system: CML-T1 (Chronic Myelogenous Leukemia)
In short: as §1

[11] = test system: PC-14 (Lung Adenocarcinoma)
In short: as §1

[12] = test system: NCI-H1623 (Lung Adenocarcinoma)
In short: as §1

[13] = test system: SW684 (Other Solid Carcinomas)
In short: as §1

[14] = test system: NCI-H196 (Small Cell Lung Carcinoma)
In short: as §1

[15] = test system: LAMA-84 (Chronic Myelogenous Leukemia)
In short: as §1

[16] = test system: NCI-H1563 (Lung Adenocarcinoma)
In short: as §1

786-0 (Kidney Carcinoma) = test system: 786-0 (Kidney Carcinoma)
In short: as §1

[17] = test system: LOUCY (T-Lymphoblastic Leukemia)
In short: as §1

Row | SMILES | Bliss excess (ES-2 (Ovarian Carcinoma)) | Bliss excess [1] | Bliss excess [2] | Bliss excess [3] | Bliss excess [4] | Bliss excess [5] | Bliss excess [6] | Bliss excess [7] | Bliss excess [8] | Bliss excess [9] | Bliss excess (CHL-1 (Melanoma)) | Bliss excess [10] | Bliss excess [11] | Bliss excess [12] | Bliss excess [13] | Bliss excess [14] | Bliss excess [15] | Bliss excess [16] | Bliss excess (786-0 (Kidney Carcinoma)) | Bliss excess [17]
1 | COc1cc2ncnc(Nc3ccc(F)c(Cl)c3)c2cc1OCCCN1CCOCC1 [Gefitinib] + CC(C)n1c(=O)n(C)c2cnc3cc(F)c(-c4ccc(OCCCN5CCCCC5)nc4)cc3c21 [AZD1390] (first compound max 10 µM, 7x7, partner max 0.3 µM) | -0.0989 | -0.0696 | -0.0395 | -0.0556 | -0.0976 | -0.0863 | -0.07 | -0.0247 | -0.0454 | -0.0807 | -0.0472 | -0.0252 | -0.0565 | -0.0268 | -0.0557 | -0.0685 | -0.0328 | -0.0757 | -0.0652 | 0.0024
2 | CC1(C)CCC(CN2CCN(c3ccc(C(=O)NS(=O)(=O)c4ccc(NCC5CCOCC5)c([N+](=O)[O-])c4)c(Oc4cnc5[nH]ccc5c4)c3)CC2)=C(c2ccc(Cl)cc2)C1 [Venetoclax] + CN(C)CCCOc1ccc(-c2ccc3ncc4c(c3c2)n(C2CCOCC2)c(=O)n4C)cn1 [AZD0156] (first compound max 1 µM, 7x7, partner max 1 µM) | 0.0069 | -0.113 | -0.0356 | 0.0071 | -0.0378 | -0.0485 | 0.031 | 0.0229 | -0.0027 | 0.013 | 0.0082 | 0.0232 | 0.0043 | -0.0133 | -0.0333 | -0.0333 | 0.0018 | -0.0099 | -0.0327 | 0.0594
3 | CN(C)CCCOc1ccc(-c2ccc3ncc4c(c3c2)n(C2CCOCC2)c(=O)n4C)cn1 [AZD0156] + C=CCn1c(=O)c2cnc(Nc3ccc(N4CCN(C)CC4)cc3)nc2n1-c1cccc(C(C)(C)O)n1 [AZD1775] (first compound max 1 µM, partner max 1 µM) | -0.0249 | 0.0285 | -0.0266 | -0.0479 | -0.0187 | -0.0519 | 0.0118 | -0.0409 | -0.03 | -0.0193 | -0.0427 | -0.0271 | -0.0209 | -0.065 | -0.076 | -0.0791 | -0.037 | -0.0549 | 0.0005 | -0.0123
4 | CCc1c2c(nc3ccc(O)cc13)-c1cc3c(c(=O)n1C2)COC(=O)[C@]3(O)CC [SN-38] + CN(C)CCCOc1ccc(-c2ccc3ncc4c(c3c2)n(C2CCOCC2)c(=O)n4C)cn1 [AZD0156] (first compound max 0.3 µM, 7x7, partner max 1 µM) | 0.0144 | 0.0218 | -0.0265 | 0.0491 | 0.105 | -0.0022 | 0.0492 | 0.0387 | 0.0502 | -0.083 | 0.0336 | 0.0241 | 0.0407 | -0.0496 | -0.0457 | -0.049 | 0.08 | -0.0605 | 0.0032 | 0.0406
5 | Cc1cc2ncnn2cc1Nc1ncc2c(n1)n(C1CCOCC1)c(=O)n2C [AZD7648] + O=C(c1cc(Cc2n[nH]c(=O)c3ccccc23)ccc1F)N1CCN(C(=O)C2CC2)CC1 [Olaparib] (first compound max 10 µM, 7x7, partner max 10 µM) | -0.0354 | -0.0259 | -0.0054 | -0.0391 | -0.0224 | -0.0482 | 0.0624 | -0.0281 | -0.0444 | -0.0546 | -0.0266 | -0.0483 | -0.0245 | -0.0486 | -0.0452 | -0.0435 | -0.0044 | -0.0487 | -0.0162 | -0.0388
6 | CC1(C)CCC(CN2CCN(c3ccc(C(=O)NS(=O)(=O)c4ccc(NCC5CCOCC5)c([N+](=O)[O-])c4)c(Oc4cnc5[nH]ccc5c4)c3)CC2)=C(c2ccc(Cl)cc2)C1 [Venetoclax] + Cc1cc2ncnn2cc1Nc1ncc2c(n1)n(C1CCOCC1)c(=O)n2C [AZD7648] (first compound max 1 µM, 7x7, partner max 10 µM) | -0.0087 | -0.114 | -0.0205 | 0.0067 | -0.0197 | -0.028 | -0.0008 | 0.0128 | -0.0025 | -0.0564 | -0.0264 | -0.0195 | -0.0163 | -0.0006 | -0.0627 | -0.0385 | -0.0041 | -0.0123 | -0.0487 | 0.0678
7 | COc1cccc(OCCCN)c1-c1cc(Nc2cnc(C#N)cn2)n[nH]1 [Prexasertib] + CCc1c2c(nc3ccc(O)cc13)-c1cc3c(c(=O)n1C2)COC(=O)[C@]3(O)CC [SN-38] (first compound max 1 µM, 7x7, partner max 0.3 µM) | -0.0222 | 0.0153 | 0.0379 | -0.0116 | 0.0844 | 0.0967 | -0.016 | -0.0716 | 0.153 | 0.0513 | 0.0254 | 0.0077 | -0.0169 | -0.0364 | 0.0036 | 0.0391 | -0.0066 | -0.0111 | -0.0368 | 0.0103
8 | Cc1nc(Nc2ncc(C(=O)Nc3c(C)cccc3Cl)s2)cc(N2CCN(CCO)CC2)n1 [Dasatinib] + CC(=O)Nc1cccc(-n2c(=O)n(C3CC3)c(=O)c3c(Nc4ccc(I)cc4F)n(C)c(=O)c(C)c32)c1 [Trametinib] (first compound max 2 µM, 7x7, partner max 1 µM) | 0.0522 | 0.122 | -0.0482 | 0.179 | -0.0093 | -0.0565 | -0.0108 | 0.0234 | -0.186 | -0.0295 | 0.0137 | -0.0296 | 0.0079 | -0.0775 | 0.0004 | -0.0634 | 0.0037 | -0.111 | -0.0592 | 0.0286
9 | COc1cc2c(cc1OCCCCCOc1cc3c(cc1OC)C(=O)N1C=C(C)C[C@H]1C=N3)N=C[C@@H]1CC(C)=CN1C2=O [SG3199] + O=C(c1cc(Cc2n[nH]c(=O)c3ccccc23)ccc1F)N1CCN(C(=O)C2CC2)CC1 [Olaparib] (first compound max 0.001 µM, 7x7, partner max 10 µM) | -0.045 | -0.0486 | -0.0286 | -0.013 | -0.013 | -0.0368 | 0.0476 | -0.0361 | -0.0383 | -0.0235 | -0.0227 | -0.006 | -0.0274 | -0.0342 | -0.056 | -0.0387 | -0.0015 | -0.0428 | -0.0223 | -0.039
10 | Cc1c2c(nn1C)CSCc1cc(n(C)n1)CSc1cc(c3ccccc3c1)OCCCc1c(C(=O)O)n(C)c3c-2c(Cl)ccc13 [AZD5991] + C=CCn1c(=O)c2cnc(Nc3ccc(N4CCN(C)CC4)cc3)nc2n1-c1cccc(C(C)(C)O)n1 [AZD1775] (first compound max 1 µM, partner max 1 µM) | -0.0399 | -0.0047 | -0.0587 | -0.0963 | 0.0091 | 0.0025 | -0.0181 | -0.0319 | 0.0116 | 0.0255 | -0.0218 | -0.0151 | -0.001 | 0.0167 | -0.0161 | -0.0266 | 0.0422 | 0.0004 | -0.0387 | -0.003
11 | C=CCn1c(=O)c2cnc(Nc3ccc(N4CCN(C)CC4)cc3)nc2n1-c1cccc(C(C)(C)O)n1 [AZD1775] + C1CN(CCC1(C(=O)N[C@@H](CCO)C2=CC=C(C=C2)Cl)N)C3=NC=NC4=C3C=CN4 [Capivasertib] (first compound max 3 µM, partner max 3 µM) | -0.0209 | -0.0228 | -0.0937 | 0.0034 | -0.0653 | -0.0404 | 0.0591 | -0.0716 | 0.0093 | -0.0117 | 0.0106 | -0.0178 | -0.018 | -0.0576 | -0.0351 | -0.118 | 0.0017 | -0.0318 | -0.0169 | 0.0157
12 | CN(CCO)CC[C@H](CSc1ccccc1)Nc1ccc(S(=O)(=O)NC(=O)c2ccc(N3CCC([C@@H](O)c4ccccc4-c4ccc(Cl)cc4)CC3)cc2)cc1S(=O)(=O)C(F)(F)F [AZD4320] + Cc1cc2ncnn2cc1Nc1ncc2c(n1)n(C1CCOCC1)c(=O)n2C [AZD7648] (first compound max 1 µM, 7x7, partner max 10 µM) | -0.0186 | -0.0358 | -0.0221 | -0.0522 | 0.0016 | 0.004 | 0.0087 | -0.0211 | -0.0186 | -0.0314 | -0.0391 | 0.0044 | -0.0188 | -0.0206 | -0.0628 | -0.0395 | -0.0161 | -0.0322 | -0.0428 | 0.0365
13 | NC1(C(=O)N[C@@H](CCO)c2ccc(Cl)cc2)CCN(c2ncnc3[nH]ccc23)CC1 [Capivasertib] + COc1nnc2ccc(N3CCC(c4ccc(OCCN5CCN(C)C(=O)[C@H]5C)cc4)CC3)nn12 [AZD5153] (first compound max 10 µM, 7x7, partner max 1 µM) | 0.0199 | 0.0115 | -0.0133 | -0.0081 | 0.0265 | 0.0078 | -0.0339 | 0.0414 | -0.002 | -0.0437 | 0.0143 | -0.0125 | 0.0461 | 0.0638 | 0.004 | 0.0227 | -0.0038 | -0.0218 | 0.0014 | 0.0912
14 | C[C@@H](c1ccc2nccn2c1)n1nnc2ncc(-c3cnn(C)c3)nc21 [Savolitinib] + Cc1c2c(nn1C)CSCc1cc(n(C)n1)CSc1cc(c3ccccc3c1)OCCCc1c(C(=O)O)n(C)c3c-2c(Cl)ccc13 [AZD5991] (first compound max 1 µM, 7x7, partner max 1 µM) | -0.0299 | -0.032 | -0.0158 | -0.0124 | -0.0373 | -0.0517 | -0.052 | 0.0103 | -0.0676 | 0.012 | -0.023 | 0.0118 | -0.0134 | -0.0195 | -0.0608 | -0.0675 | 0.0136 | -0.0271 | -0.0331 | 0.0369
